This is an account of results in BindingDB's records for PubMed 1346637 (Mayo Clinic, 1992).

Usually Ki stands for a dissociation constant, usually derived from enzyme kinetics or from competition with a known ligand. Low readings indicate tighter binding, high ones weaker binding.

For assay [1], the target named is T1, Muscarinic acetylcholine receptor M2 (Homo sapiens, UniProt P08172).
T1 sequence (P08172 whole entry): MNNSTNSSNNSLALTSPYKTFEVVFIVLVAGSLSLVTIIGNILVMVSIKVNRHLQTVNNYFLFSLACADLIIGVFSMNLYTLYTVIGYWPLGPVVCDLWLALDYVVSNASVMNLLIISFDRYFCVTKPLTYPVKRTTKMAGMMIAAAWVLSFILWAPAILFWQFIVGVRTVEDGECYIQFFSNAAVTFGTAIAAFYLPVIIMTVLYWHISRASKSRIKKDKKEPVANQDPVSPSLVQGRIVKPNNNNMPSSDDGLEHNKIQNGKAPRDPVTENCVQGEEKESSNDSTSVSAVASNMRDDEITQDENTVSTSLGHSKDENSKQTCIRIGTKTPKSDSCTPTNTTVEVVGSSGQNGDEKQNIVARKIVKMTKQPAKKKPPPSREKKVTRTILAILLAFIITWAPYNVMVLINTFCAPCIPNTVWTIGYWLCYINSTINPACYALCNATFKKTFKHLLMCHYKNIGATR

The target of assay [2] is T2, Muscarinic acetylcholine receptor M4 (Homo sapiens, UniProt P08173).
T2 sequence (P08173 whole entry): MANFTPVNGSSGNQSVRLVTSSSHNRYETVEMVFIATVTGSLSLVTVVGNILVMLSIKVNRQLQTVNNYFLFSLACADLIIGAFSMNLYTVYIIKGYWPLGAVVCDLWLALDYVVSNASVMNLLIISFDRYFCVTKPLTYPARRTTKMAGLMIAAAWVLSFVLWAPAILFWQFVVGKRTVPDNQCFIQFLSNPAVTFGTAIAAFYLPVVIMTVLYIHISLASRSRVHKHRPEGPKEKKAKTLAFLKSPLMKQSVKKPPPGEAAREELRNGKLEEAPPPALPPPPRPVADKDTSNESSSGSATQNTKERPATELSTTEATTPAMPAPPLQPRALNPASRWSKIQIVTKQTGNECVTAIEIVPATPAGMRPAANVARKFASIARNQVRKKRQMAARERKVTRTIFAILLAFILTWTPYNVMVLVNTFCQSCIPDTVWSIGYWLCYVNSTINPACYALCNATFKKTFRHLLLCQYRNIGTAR

Assay [3] deals with T3, Muscarinic acetylcholine receptor M5 (Homo sapiens, UniProt P08912).
T3 sequence (P08912 whole entry): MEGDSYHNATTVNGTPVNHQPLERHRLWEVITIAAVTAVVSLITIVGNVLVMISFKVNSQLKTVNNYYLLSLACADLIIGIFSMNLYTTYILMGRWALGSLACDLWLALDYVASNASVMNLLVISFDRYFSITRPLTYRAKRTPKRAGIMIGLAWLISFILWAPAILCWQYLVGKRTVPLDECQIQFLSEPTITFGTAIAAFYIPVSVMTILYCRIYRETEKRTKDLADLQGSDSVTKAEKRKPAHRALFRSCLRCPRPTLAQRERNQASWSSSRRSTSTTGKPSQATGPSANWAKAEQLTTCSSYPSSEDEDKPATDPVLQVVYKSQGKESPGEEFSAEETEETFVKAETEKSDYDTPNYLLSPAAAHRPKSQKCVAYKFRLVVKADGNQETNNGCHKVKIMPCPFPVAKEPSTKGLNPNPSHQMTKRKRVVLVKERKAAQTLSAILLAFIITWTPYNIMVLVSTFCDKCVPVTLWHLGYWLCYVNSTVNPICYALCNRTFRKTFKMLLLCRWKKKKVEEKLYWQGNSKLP

For the compound `CN1CCN(C2=Nc3cc(F)ccc3Cc3ccccc32)CC1`, the results for the Ki in assay [1], in assay [2] and in assay [3] were 71 nM, 14 nM and 17 nM, respectively.

For `CN(C)CCOC1=Cc2ccccc2Sc2ccc(Cl)cc21` [2-Chloro-11-(2-(dimethylamino)ethoxy)dibenzo(b,f)thiepin], the results for the Ki in assay [2] and in assay [3] were 77 nM and 260 nM, respectively.

In the case of `O=C(CCCN1CCC(O)(c2ccc(Br)cc2)CC1)c1ccc(F)cc1` [BROMPERIDOL], the Ki was 1800 nM in assay [1], 1700 nM in assay [2] and 4800 nM in assay [3].

On to `CN(C)CC/C=C1\c2ccccc2Sc2ccc(Cl)cc21`, for which the Ki in assay [2] amounted to 18 nM; in assay [3] it was 25 nM.

Consider `CN1CCCCC1CCN1c2ccccc2Sc2ccc([S+](C)[O-])cc21` (centres undefined), for which the Ki was 15 nM in assay [1], 19 nM in assay [2] and 60 nM in assay [3].

For the compound `CN1CCN(C2=Nc3ccccc3Oc3ccc(Cl)cc32)CC1` [13-chloro-10-(4-methylpiperazin-1-yl)-2-oxa-9-azatricyclo[9.4.0.0^{3,8}]pentadeca-1(11),3,5,7,9,12,14-heptaene], the Ki was found to be 300 nM in assay [2] and 241 nM in assay [3].

Turning to `CN1CCN(C2=Cc3cc(Cl)ccc3C(=CC#N)c3ccccc32)CC1` [CAS_79781-95-6], the Ki in assay [1] was 470 nM; in assay [2], 1000 nM; in assay [3] it was 1100 nM.

As to `OC(CCN1CCCCC1)(c1ccccc1)C1CC2C=CC1C2` (centres undefined) [1-(bicyclo[2.2.1]hept-5-en-2-yl)-1-phenyl-3-(piperidin-1-yl)propan-1-ol], the Ki in assay [2] is 2.4 nM; in assay [3] it was 6.3 nM.

For `CN1CCN(CC/C=C2/c3ccccc3Sc3ccc(S(=O)(=O)N(C)C)cc32)CC1` [MLS000028463], the values for the Ki in assay [1], in assay [2] and in assay [3] were 2100 nM, 1540 nM and 4310 nM, respectively.

`CC1CCN(CCCC(=O)c2ccc(F)cc2)CC1` [CAS_3575-80-2]: the Ki in assay [1] was 2400 nM; in assay [2], 4400 nM; in assay [3], more than 10000 nM.

Consider `O=C1CC2(CCCC2)CC(=O)N1CCCCN1CCN(c2nsc3ccccc23)CC1` [TIOSPERONE], for which the Ki in assay [1] stood at 180 nM; in assay [2], 480 nM; in assay [3], 3900 nM.

As to `CN1CCN(C2=Nc3cscc3C(=CC#N)c3cscc32)CC1` [NSC_3086153], the results for the Ki in assay [1], in assay [2] and in assay [3] were 62 nM, 430 nM and 660 nM, respectively.

For the compound `OC(CCN1CCCC1)(c1ccccc1)C1CCCCC1` (centres undefined) [1-Cyclohexyl-1-phenyl-3-pyrrolidin-1-yl-propan-1-ol], the Ki in assay [2] turned out to be 7 nM; in assay [3], 24 nM.
